Test system: MYCN G4 DNA (hairpin minor groove)
Test: Fluorescence displacement assay with Hoechst 33258
Assay type: binding, human
Protocol: Fluorescence displacement assay. Fluorescence displacement assays were carried out by using two classical minor groove binders (Hoechst 33258 and netropsin). Hoechst 33258, as a fluorophore, was prepared at 5 μM concentration in the buffer (10 mM Tris, pH7.0, 100 mM KCl), and then titrated with different concentrations of unlabeled MYCN G4 oligonucleotides. For displacement, either compound MY-1 or netropsin was added into the solution resulting in a final concentration of 5 μM or 50 μM. Fluorescence signals were obtained with an excitation wavelength of 352 nm and an emission wavelength of 500 nm.

Compound: COc1ccc(-c2noc(-c3ccc(NCCCN4CCCC4)nn3)n2)cc1 [MY-1, 6-(3-(4-methoxyphenyl)-1,2,4-oxadiazol-5-yl)-N-(3-(pyrrolidin-1-yl)propyl)pyridazin-3-amine]
- displacement of Hoechst 33258 at 5 μM (5 μM competitor): no measurable change
- displacement of Hoechst 33258 at 50 μM (50 μM competitor): partial fluorescence decrease
